Marks after values point to notes of the source that are not given here.
Tests used:
PMM = details: patient fibroblasts; cited from earlier work
PMM2-CDG patients [1] = experiment: Carbohydrate deficient transferrin (CDT) in patients on epalrestat; format: in vivo, human; details: for CDT a-oligo/di-oligo ratio: C < 0.011; for CDT mono-oligo/di-oligo ratio: C < 0.06
Excerpt: The primary objective of the study was to assess the efficacy and safety of epalrestat treatment in 3 PMM2-CDG pediatric subjects prior to a planned Phase III clinical trial (Oral epalrestat therapy in Pediatric Subjects with PMM2-CDG, NCT04925960). The secondary objective was to assess the ability of epalrestat to improve clinically relevant aspects of PMM2-CDG such as increased urine polyols (sorbitol, mannitol), abnormal glycosylation (carbohydrate deficient transferrin), abnormal coagulation (ATIII=antithrombin III), impaired liver function (ALT=Alanine Transaminase, AST=Aspartate Transaminase), neurologic function (Brief Ataxia Rating Scale=BARS), severity of phenotype (Nijmegen Pediatric CDG Rating Scale=NPCRS). The ability of epalrestat to inhibit polyol production was monitored by evaluating urine polyol levels (sorbitol, mannitol), which are elevated in PMM2-CDG. Next, carbohydrate deficient transferrin, which is abnormal in PMM2-CDG, was evaluated in order to assess improvement of glycosylation following epalrestat treatment. CDT mono-oligo/dioligo ratio and a-oligo/dioligo ratio are used to evaluate glycosylation abnormalities. Transferrin normally occurs with two glycan chains (di-oligo). In the case of glycosylation abnormalities, glycan chains are missing (A-oligo transferrin has no glycan chains, mono-oligo has one glycan chain, di-oligo has two glycan chains). The higher ratio of a-oligo/di-oligo and mono-oligo/di-oligo indicate glycosylation abnormalities are present. Therefore, improvement in a-oligo/di-oligo and mono-oligo/di-oligo ratios can be used to monitor improvement or worsening of glycosylation status. Changes in the liver enzymes AST, ALT, which are frequently elevated in PMM2-CDG, were monitored both as part of a safety study and as part of monitoring clinical improvement in coagulation. Neurologic improvement was assessed by modified BARS scores in 2 patients (3rd patient was not eligible for the test due to age at the start of the trial). NPCRS was assessed at every visit to assess changes in the severity of the patients' phenotype. Additionally, the frequency of adverse events, changes in vital signs, complete blood count, and changes in BMI were monitored.
Two patients were started on epalrestat on single patient investigational new drug (IND) (P5 IRB: 19-010017; IND #145262; P6 Protocol PMM2-CDG-001/A). Epalrestat was initiated on the parents' own initiative in the third patient (P7). Two patients were in their second year of epalrestat treatment, while the third, was in the 3rd year of treatment. Physical, neurological, and biochemical examinations were performed in 3 PMM2-CDG patients at baseline, and at every three months after the start of the epalrestat treatment. Patients underwent NPCRS phenotype severity assessment and biological sampling at every visit. Epalrestat (Ono Pharmaceuticals, Osaka, Japan) was taken orally 3 times per day (TID) before meals in a divided dose, with dosage escalation throughout the treatment. The pharmacological profile of epalrestat was as described elsewhere (Ligezka et al, Ann. Neurol., 90(6):887-900 (2021)). The starting dosage in P5 and P6 was 0.8 mg/kg/day, while P7 was started on 0.5 mg/kg/day due to their young age. P7 dosage was increased to 0.8 mg/day after a month, once safety was established. Blood and urine samples were collected routinely. Urine polyols, carbohydrate deficient transferrin (CDT), anti-thrombin III (ATIII), liver enzymes (ALT, AST), and complete blood count (CBC) were performed. Modified Brief Ataxia Rating Scale was used to assess ataxia in the 2 patients (P5, P6; P7 was not eligible for the test due to age). The modified BARS scale included Archimedes spiral test, but not the abnormalities of the ocular pursuit system and the scale range was 0-54. Goal attainment scale (GAS) was administered as described per study protocol (ClinicalTrials.gov Identifier: NCT04199000). […]

pmm2 mutant zebrafish = experiment: Viability of treated zebrafish; format: in vivo
PMM2-CDG patients [2] = experiment: Clinical observation of lower body strength and speech; format: in vivo, human; details: P7
Method: Two patients were started on epalrestat on single patient investigational new drug (IND) (P5 IRB: 19-010017; IND #145262; P6 Protocol PMM2-CDG-001/A). Epalrestat was initiated on the parents' own initiative in the third patient (P7). Two patients were in their second year of epalrestat treatment, while the third, was in the 3rd year of treatment. Physical, neurological, and biochemical examinations were performed in 3 PMM2-CDG patients at baseline, and at every three months after the start of the epalrestat treatment. Patients underwent NPCRS phenotype severity assessment and biological sampling at every visit. Epalrestat (Ono Pharmaceuticals, Osaka, Japan) was taken orally 3 times per day (TID) before meals in a divided dose, with dosage escalation throughout the treatment. The pharmacological profile of epalrestat was as described elsewhere (Ligezka et al, Ann. Neurol., 90(6):887-900 (2021)). The starting dosage in P5 and P6 was 0.8 mg/kg/day, while P7 was started on 0.5 mg/kg/day due to their young age. P7 dosage was increased to 0.8 mg/day after a month, once safety was established. […] Quantification of goal attainment levels is done on a 5-point scale ranging from −2 to +2, with 0 indicating the expected level of goal attainment. Three individual goals were established by each patient (parent) at baseline and the progress was annually assessed. […]

[3] = P7, Baseline column: first available results 3 months after starting treatment, 0.5, 0.8 mg/kg day

SMILES: CC(/C=C1\SC(=S)N(CC(=O)O)C1=O)=C\c1ccccc1 [epalrestat]
- PMM enzymatic activity (PMM): increase
- CDT a-oligo/di-oligo ratio (PMM2-CDG patients [1]; P5, 12 months, 1.5 mg/kg day, baseline 0.005): 0.003
- CDT mono-oligo/di-oligo ratio (PMM2-CDG patients [1]; P5, 12 months, 1.5 mg/kg day, baseline 0.09): 0.06
- CDT a-oligo/di-oligo ratio (PMM2-CDG patients [1]; P5, 24 months, 2 mg/kg day, baseline 0.005): 0.010
- CDT mono-oligo/di-oligo ratio (PMM2-CDG patients [1]; P5, 24 months, 2 mg/kg day, baseline 0.09): 0.09
- CDT a-oligo/di-oligo ratio (PMM2-CDG patients [1]; P5, 28 months, 3 mg/kg day, baseline 0.005): 0.08
- CDT mono-oligo/di-oligo ratio (PMM2-CDG patients [1]; P5, 28 months, 3 mg/kg day, baseline 0.09): 0.07
- CDT (PMM2-CDG patients [1]; P5, words): Normalization of CDT
- CDT a-oligo/di-oligo ratio (PMM2-CDG patients [1]; P6, 12 months, 1.5 mg/kg day, baseline 0.196): 0.111
- CDT mono-oligo/di-oligo ratio (PMM2-CDG patients [1]; P6, 12 months, 1.5 mg/kg day, baseline 0.69): 0.43
- CDT a-oligo/di-oligo ratio (PMM2-CDG patients [1]; P6, 18 months, 3 mg/kg day, baseline 0.196): 0.105
- CDT mono-oligo/di-oligo ratio (PMM2-CDG patients [1]; P6, 18 months, 3 mg/kg day, baseline 0.69): 0.47
- CDT (PMM2-CDG patients [1]; P6, 18 months, escalating doses, words): significant improvement in CDT with a steady trend towards normalization
- CDT a-oligo/di-oligo ratio (PMM2-CDG patients [1]; P7, 12 months, 1.5 mg/kg day): 1.033
- CDT mono-oligo/di-oligo ratio (PMM2-CDG patients [1]; P7, 12 months, 1.5 mg/kg day): 1.58
- CDT a-oligo/di-oligo ratio (PMM2-CDG patients [1]; [3]): 0.919#
- CDT mono-oligo/di-oligo ratio (PMM2-CDG patients [1]; [3]): 1.60#
- CDT (PMM2-CDG patients [1]; P7, one-year mark, words): slight improvement
- CDT (PMM2-CDG patients [1]; overall, words): improvement
- viability, treated vs untreated (pmm2 mutant zebrafish): no significant difference
- lower body strength and speech (PMM2-CDG patients [2]): improvement in lower body strength and speech

— patent US20260335294A1, “TREATING CONGENITAL DISORDERS OF GLYCOSYLATION” (Mayo Foundation for Medical Education and Research, priority 2022, published 2026)
